The test system of the experiment is 422866-222-R5-J1-PDC complex spheroid viability. The experiment is described as follows: Anticancer human tumor 422866-222-R5-J1-PDC patient-derived pancreatic adenocarcinoma cell line growth inhibition [POLQ]. The settings on record: for viability, T/C: stronger effect = lower value. As to the method: Multicellular complex tumor spheroid response to Polymerase (POL) inhibitors (novobiocin, ART-558, RP6685) in combination with a variety of drugs and investigational agents in selected tumor cell lines
The POL inhibitors (novobiocin, ART-558, and RP6685) were evaluated both individually and in combination with standard of care and investigational anticancer small molecules within a complex spheroid model of solid tumors. . Complex spheroids include a stromal component modeled by human endothelial cells (HUVEC) and fibroblasts modeled by human mesenchymal stem cells (MSCs). The concentration ranges selected for each drug and investigational agent were based upon clinically achievable concentrations if the clinical Cmax of the agent was known.
Compounds. The drugs and investigational agents: novobiocin (NSC847541), ART-558 (NSC835418), RP-6685 (NSC848927), peposertib (NSC802822), ceralasertib (NSC780249), elimusertib (NSC800525), camonsertib (NSC841442), AZD-1390 (NSC803789), olaparib (NSC753686), talazoparib (NSC767125), rucaparib (NSC756644), sotorasib (NSC818433), MRTX-1133 (NSC836407), SN-38 (NSC673596), topotecan (NSC609699), epotoside (NSC141540), doxorubicin (NSC123127), gemcitabine (NSC613327), 5-fluorouracil (NSC19893), paclitaxel (NSC125973), vemurafenib (NSC761431), MSA-2 (NSC828583), SN-011 (NSC837082), adavosertib (NSC754352), prexasertib (NSC758257), carboplatin (NSC241240) and oxaliplatin (NSC266046), were obtained from the National Cancer Institute (NCI) Developmental Therapeutics Program Chemical Repository (21). The FDA-approved anticancer drug set is available from the Developmental Therapeutics Program at https://dtp.cancer.gov/organization/dscb/obtaining/. […] The stock solutions were prepared in dimethyl sulfoxide (DMSO, Sigma-Aldrich, St. Louis, MO, cat. D2650), except for the platinum compounds which were prepared in saline (Quality Biological, Gaithersburg, MD, cat. 114-055-101), at 800-fold the tested concentration and stored at -70 degrees C prior to their use. All drugs and investigational agents were tested over a range starting from a high concentration at or near the clinical Cmax and decreasing in half-log increments. If the clinical Cmax for an agent had not been determined, the highest concentration tested was 10 microM, except for SN-38, which was tested at a high concentration of 1 microM.
Cell Culture. All cells were maintained in an incubator at 37 degrees C and 5% CO2 with 95% humidity. The PDC lines were cultured according to standard operating procedures established by the NCI PDMR (https://pdmr.cancer.gov). Table 3 of the manuscript, lists the cell lines along with the number of the three cell types plated to form the mct-spheroids and media for tumor cell growth. After thawing, all PDC lines, except 997537-175-T-J1-PDC and 415267-285-R-J2-PDC, were cultured in Matrigel-coated flasks prepared with a working solution of 1X Ham's F-12 nutrient mix, without supplementation (Thermo Fisher Scientific, cat. 11765054), 100 U/mL penicillin-streptomycin (Thermo Fisher Scientific, cat. 15140122), and 2.5% Matrigel (Corning Inc., Corning, NY, cat. 354248) for the first three passages. The two PDC lines 997537-175-T-J1-PDC and 415267-285-R-J2-PDC were cultured on uncoated flasks. The 857933-349-R-J2-PDC line was cultured in 6C/Colon 1B media containing advanced DMEM/F-12 (Thermo Fisher Scientific, cat. 12634028), 10 mM HEPES (Thermo Fisher Scientific, cat. 15630080), 1X GlutaMAX supplement (Thermo Fisher Scientific, cat. 35050061), 0.1 mg/mL primocin (InvivoGen, San Diego, CA, cat. ant-pm-2), 10% defined fetal bovine serum, heat inactivated (HyClone Laboratories Inc., Logan, UT, cat. SH30070.03HI), 50% L-WRN conditioned media (ATCC, cat. CRL-3276), 1.25 mM N-Acetyl-L-cysteine (Sigma-Aldrich, cat. A9165), 10 mM nicotinamide (Sigma-Aldrich, cat. N0636), 1X B-27 supplement (Thermo Fisher Scientific, cat. 17504044), 1X N-2 supplement (Thermo Fisher Scientific, cat. […]

SMILES strings stand for the structures. “And” between values parts separate entries of the source, which are not always exact repeats. Equal values may be shown once. Some results are limits rather than exact numbers.

Among the data in PubChem BioAssay AID1963844 (Molecular Pharmacology Branch, DTP, NCI, 2024) are viability, T/C and IC50 values, retold here.
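Further: spheroids exposed to compounds for one week before readout.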
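Wherever viability, T/C is given: percent of DMSO vehicle wells luminescence so 100% = untreated viability.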

In general, viability, T/C refers to the result in the treated group divided by that in the control group, in per cent. As a reminder, the IC50 is the concentration needed to halve the response being measured. `CNCc1ccc(-c2[nH]c3cc(F)cc4c3c2CCNC4=O)cc1`: the viability, T/C was 88% and 95% and 99.8% (compound 0.0316 µM); 89.3% and 83.7% and 99.7% (compound 0.1 µM); 90.7% and 102% and 101% (compound 1 µM); 77.7% and 90.4% and 86.5% (compound 3.16 µM); 94.5% and 76.6% and 86.3% (compound 10 µM). Further, the 50% inhibitory concentration (IC50) (curve of compound) was > 10000 nM.

Turning to `COc1cc(C2c3cc4c(cc3C(OC3OC5COC(C)OC5C(O)C3O)C3COC(=O)C23)OCO4)cc(OC)c1O` (centres undefined), the viability, T/C (compound 0.0316 µM) was 90.2% and 97.7% and 97.4%; the viability, T/C (compound 0.1 µM) is 95% and 86.7% and 97.1%; the viability, T/C (compound 0.316 µM) was 79.5% and 59.3% and 73.2%; the viability, T/C (compound 1 µM) was 54.9% and 45.2% and 52.5%; the viability, T/C (compound 3.16 µM) was 37% and 39.4% and 37.1%; the viability, T/C (compound 10 µM) is 33.3% and 33.2% and 28.4%. Under “curve of compound”, the 50% inhibitory concentration (IC50) is 1340 nM and 667 nM and 1150 nM.

For the compound `COc1cc2cc(C(=O)CCC(=O)O)sc2cc1OC`, the viability, T/C runs as follows: (compound 0.0316 µM) 106% and 85.3% and 94.7%; (compound 0.1 µM) 99.5% and 89.1% and 83%; (compound 0.316 µM) 107% and 91% and 88%; (compound 3.16 µM) 98.6% and 97.3% and 98%. Besides, the half-maximal inhibitory concentration (IC50) (curve of compound) was > 10000 nM.

Turning to `COc1ccc([C@@H](O)c2cc(-c3ncnc4cc(N5CCOCC5)ccc34)c(F)cc2Cl)nn1`, the viability, T/C reads like this: (compound 0.0316 µM) 80.3% and 87.1% and 99.6%; (compound 0.1 µM) 84.6% and 77% and 79.5%; (compound 0.316 µM) 76.6% and 85.4% and 75.6%; (compound 1 µM) 62.4% and 59% and 67.8%; (compound 3.16 µM) 43.3% and 51.7% and 45.8%; (compound 10 µM) 35.5% and 35.1% and 37.1%. In addition, where the note is “curve of compound”, the 50% inhibitory concentration (IC50) was 2100 nM and 2820 nM and 3020 nM.

In the case of `COc1cccc(OCCCN)c1-c1cc(Nc2cnc(C#N)cn2)n[nH]1`, the viability, T/C by setting is: (compound 0.00316 µM) 61.5% and 71.1% and 79.5%; (compound 0.01 µM) 37.6% and 43.8% and 38%; (compound 0.0316 µM) 38.3% and 35% and 28.3%; (compound 0.1 µM) 38.7% and 31.6% and 31.1%; (compound 0.316 µM) 34% and 37.7% and 24.6%; (compound 1 µM) 35.8% and 33.7% and 48.9%. Besides, the IC50 (curve of compound) is 5.56 nM and 7.54 nM and 7.07 nM.

`COc1cccc2c1C(=O)c1c(O)c3c(c(O)c1C2=O)CC(O)(C(=O)CO)CC3OC1CC(N)C(O)C(C)O1` (centres undefined): the viability, T/C runs as follows: (compound 0.0316 µM) 70.1% and 56.7% and 69%; (compound 0.316 µM) 36.8% and 26.5% and 35.3%; (compound 1 µM) 34.3% and 23.3% and 26.8%; (compound 3.16 µM) 30.2% and 28.3% and 28.6%; (compound 10 µM) 33.7% and 25.8% and 38.8%. Also, where the note is “curve of compound”, the IC50 is 106 nM and 68.8 nM and 221 nM.

Take `Cn1ncnc1[C@H]1c2n[nH]c(=O)c3cc(F)cc(c23)N[C@@H]1c1ccc(F)cc1`: the viability, T/C was 105% and 98.6% and 90.6% (compound 0.000316 µM); 94.4% and 84.4% and 82.5% (compound 0.001 µM); 95.8% and 100% and 84.7% (compound 0.00316 µM); 102% and 89.2% and 106% (compound 0.01 µM); 96.2% and 89.7% and 91.1% (compound 0.0316 µM); 82.2% and 98.5% and 82.5% (compound 0.1 µM). Also, the IC50 (curve of compound) is > 100 nM.

For the compound `Nc1ccc(C#CCN(C(=O)Cc2ncc(C(F)(F)F)cc2C(F)(F)F)c2ccc(F)cc2)nn1`, the viability, T/C is 93.7% [middle of 13 runs] (compound 0.0316 µM); 97.3% [middle of 13 runs] (compound 0.1 µM); 97.2% [middle of 13 runs] (compound 1 µM); 105% [middle of 13 runs] (compound 3.16 µM); 114% [middle of 13 runs] (compound 10 µM). Further, where the note is “compound alone, run of 12/05/2023”, the IC50 is > 10000 nM.

For the compound `Nc1ccn(C2OC(CO)C(O)C2(F)F)c(=O)n1` (centres undefined), the viability, T/C by setting is: (compound 0.0316 µM) 62.1% and 51.8% and 64.1%; (compound 0.1 µM) 54.6% and 35.1% and 56.4%; (compound 0.316 µM) 41% and 37% and 34.6%; (compound 1 µM) 41.4% and 31.6% and 43%; (compound 3.16 µM) 38.3% and 35.9% and 36.3%; (compound 10 µM) 40.9% and 38.9% and 34.1%. The IC50 (curve of compound) is 120 nM and < 31.6 nM and 146 nM.

Take `O=C(c1cc(Cc2n[nH]c(=O)c3ccccc23)ccc1F)N1CCN(C(=O)C2CC2)CC1`: the viability, T/C reads like this: (compound 0.0316 µM) 98.1% and 101% and 83.2%; (compound 0.1 µM) 97.3% and 102% and 84.5%; (compound 1 µM) 99.5% and 102% and 91.3%. In addition, under “curve of compound”, the IC50 is > 10000 nM.

`O=c1[nH]cc(F)c(=O)[nH]1`: the viability, T/C runs as follows: (compound 0.0316 µM) 95.8% and 101% and 92%; (compound 0.1 µM) 103% and 93.5% and 99.9%; (compound 0.316 µM) 107% and 97.4% and 98.9%; (compound 1 µM) 85% and 101% and 80.7%; (compound 3.16 µM) 73.7% and 83.7% and 89.8%; (compound 10 µM) 74.5% and 73.4% and 72.8%. Also, under “curve of compound”, the half-maximal inhibitory concentration (IC50) is > 10000 nM.
